{
  "source": "paper PMC7804942",
  "about": "“The amphibian peptide Yodha is virucidal for Zika and dengue viruses” (Scientific Reports, 2021)",
  "key": {"[1]": {"test_system": "ZIKV (PRVABC59)", "assay": "ZIKV entry, immunofluorescence of flavivirus E protein in Vero cells", "type": "cell-based, Zika virus", "settings": "ZIKV exposed to peptide, then Vero cells infected for 30 min", "method": "Next, we determined whether the observed Yodha peptide-induced decrease in viral titers was due to blocked viral entry. We reasoned that if the peptide directly kills or disrupts the envelope structure of ZIKV, this would prevent virus entry. To test this, we designed an experiment to measure virus entry, by allowing ZIKV to bind cells at 4 °C for 1 h followed by shifting the cells to 37 °C to permit virus entry (Fig. 2A). It has been shown that DENV2 entry occurs within 25 min by early endosome trafficking. Briefly, we exposed ZIKV to Yodha peptide and then allowed the virus to infect Vero cells for 30 min. We then measured viral RNA within the Vero cells by quantitative Real Time-PCR (qRT-PCR) (Fig. 2B). […] Next, we visualized ZIKV entry or lack thereof by immunofluorescence using antibodies against pan flavivirus E protein. […] Next, we sought to determine if Yodha peptide could reduce infectious virus production in cells already infected with ZIKV. Briefly, we infected Vero cells, allowed virus attachment and entry, and then added Yodha peptide to the culture medium at 1, 24, 48, and 72 h post-infection. We collected culture supernatants at 3, 24, 48, and 72 h after ZIKV infection to quantitate ZIKV by FFU assay (Fig. 2E). ZIKV was not detected at 3 h post-infection in both OVA- or Yodha-treated cells. […]"}, "[2]": {"test_system": "ZIKV", "assay": "ZIKV neutralisation by mutant, enantiomer and variant peptides (strain not stated)", "type": "cell-based, Zika virus", "method": "To further characterize Yodha peptide, we generated alanine-scanning mutants of the peptide, which removes the side chain, but maintains peptide conformation, allowing for the assessment of the significance of each amino acid within the larger structure (Fig. 4A). Each of 23 mutated peptides was tested for its (a) ability to neutralize ZIKV (Fig. 4B) and (b) toxicity against human RBC, if any (Fig. 4C).\nSo next, we sought to determine how common this peptide or its analogs are in host defense peptides isolated from elsewhere in the world. […] We then determined the extent to which any of these variant peptides can neutralize ZIKV. […] We also generated a series of mutant Yodha peptides, including one which lacks the C terminal DDQERC, a short 12 peptide fragment that lacks the EEERGA from variant #12, and a S1P peptide that replace S1-P in the full-length Yodha (Fig. 5D) and tested their activity against ZIKV (Fig. 5D).\n(§1) Peptides were incubated with ZIKV (100 FFU/well) for 2 h at 37 °C. This incubated mixture was used to infect Vero cells for 1.5 h at 37 °C. Cells and inoculum were overlaid with 2% methylcellulose solution (OptiMEM; Gibco) and incubated for 72 h at 37 °C. Cells were washed with PBS and fixed with a 1:1 methanol/acetone mixture for 30 min. Cells were blocked with 5% milk/PSB at room temperature for 20 min and incubated with primary antibody (anti-flavivirus mouse 4G2[10] antibody) for 2 h at 37 °C. Then, cells were incubated with secondary antibody (HRP-conjugated goat anti-mouse IgG, Cell Signaling) for 1 h at 37 °C. Cells were developed with TrueBlue Peroxidase Substrate (KPL). Plates were read on a CTL-ImmunoSpot S6 Micro analyzer."}, "[3]": {"test_system": "DENV3", "settings": "FFA", "method": "Dengue virus strains 1, 2, 3 and 4 were treated with wither Yodha or control OVA peptide at (A) 50 µM (B) 160 µM concentration and the % of viral focus forming units were determined. (C) IC50 measurement of Yodha in DENVs infection by FFA. […] OVA peptide was used a negative control.\nas §1"}, "[4]": {"test_system": "MR766 ZIKV strain", "assay": "ZIKV MR766 infection of IFNAR KO mice, morbidity", "type": "in vivo, mouse", "settings": "MR766, peptide-treated vs control group", "method": "To assess morbidity, we switched to IFNAR KO mice and infected them with the MR766 ZIKV strain.\nAll mouse studies were approved by the IACUC of Emory University. C57BL/6 mice were purchased from The Jackson Laboratory. All mice were maintained in specified pathogen-free in accordance with the institutional guidelines of Emory University’s Animal Care and Use Committee. All control and experimental mice were age- and sex-matched. For viral titer assessment, Wild-type C57BL/6 J mice were injected with 2 mg of an anti-Ifnar1 blocking antibody (MAR1-5A3) by the intraperitoneal route 24hrs prior to infection. Mice were anesthetized with isoflurane and inoculated by the subcutaneous route into both rear footpads with 5 × 10^4 PFU of ZIKV PRVABC59 (1 × 10^5 PFU total inoculum per mouse) in a 20µL inoculum diluted in Hanks balanced salt solution (HBSS) supplemented with 1% heat-inactivated FBS. For analysis of morbidity by ZIKV viral infection, we infected 5- to 6-week-old IFNAR KO mice with ZIKV MR766 (100 PFU total inoculum per mouse). Mice were monitored daily for morbidity and mortality."}},
  "note": "Where two headings read alike, the source gives them in different places. Where a SMILES comes first, the peptide text is derived from it.",
  "data": [
    {"molecule": "CC[C@H](C)[C@H](NC(=O)[C@@H](NC(=O)CNC(=O)[C@H](CC(C)C)NC(=O)[C@H](Cc1ccccc1)NC(=O)[C@H](Cc1ccccc1)NC(=O)[C@H](CC(C)C)NC(=O)[C@H](CC(C)C)NC(=O)[C@H](CC(C)C)NC(=O)[C@H](CCSC)NC(=O)[C@@H](N)CO)[C@@H](C)O)C(=O)N[C@@H](CO)C(=O)N[C@@H](CC(C)C)C(=O)N[C@@H](CO)C(=O)N[C@@H](CC(C)C)C(=O)N[C@@H](CS)C(=O)N[C@@H](CCC(N)=O)C(=O)N[C@@H](CC(=O)O)C(=O)N[C@@H](CC(=O)O)C(=O)N[C@@H](CCC(N)=O)C(=O)N[C@@H](CCC(=O)O)C(=O)N[C@@H](CCCNC(=N)N)C(=O)N[C@@H](CS)C(=O)O", "note": "[Yodha] (H-SMLLLFFLGTISLSLCQDDQERC-OH; N-terminus and C-terminus assumed)", "values": [
      {"measurement": "expression of ZIKV envelope in cells (immunofluorescence)", "setting": "[1]", "value": "decreased expression of ZIKV envelope"},
      {"measurement": "anti-viral activity against ZIKV, D- versus L-enantiomer", "setting": "[2]", "value": "comparable anti-viral activity"},
      {"measurement": "inhibition of DENV3", "setting": "[3]; 50 µM peptide", "value": "not DENV3"},
      {"measurement": "inhibition of DENV3", "setting": "[3]; 160 µM peptide", "value": "very efficient"},
      {"measurement": "weight changes", "setting": "[4]", "value": "did not observe any differences"},
      {"measurement": "survival", "setting": "[4]; data not shown", "value": "did not observe any differences"}
    ]}
  ]
}
